Square brackets hold non-standard residues; d marks the D form. Peptide text beside a SMILES is read from it. 2Nal = N[C@@H](Cc1ccc2ccccc2c1)C(=O)O
Key:
[1] = biological target: T1, hGIIA/vimentin interaction (Homo sapiens, UniProt P08670); assay: Enzyme immunoassay of hGIIA binding to vimentin coil 2; details: in vitro; read-out: IC50, inhibition of the interaction between hGIIA and vimentin
T1 construct: Purified vimentin fragments (full length or coil 2) were seeded to a 96-well microplate at 15 μg/mL; hGIIA purified in house from conditioned medium of CHO cell line 2B1
T1 sequence (P08670 269-407 limits assumed): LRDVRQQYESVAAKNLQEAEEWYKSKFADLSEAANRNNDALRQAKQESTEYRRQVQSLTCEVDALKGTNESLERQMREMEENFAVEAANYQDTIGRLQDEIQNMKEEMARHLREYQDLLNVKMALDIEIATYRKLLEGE
Experimental: Prior to assay, hGIIA antibody 4A1 was conjugated to alkaline phosphatase (4A1-AP), produced using the lightning-link conjugation kit (ab102850, Abcam) as per the manufacturer’s instructions.
Purified vimentin fragments (full length or coil 2) were seeded to a 96-well microplate at 15 μg/mL with a 100 μL/well volume. After an overnight incubation at 4 °C, the plate was emptied. Each well was then blocked overnight at 4 °C with 200 μL of 1% BSA in PBS. The plate was emptied and washed with PBST (PBS + 0.05% Tween20). hGIIA solution of 100 ng/mL in PBS with 0.1% BSA was prepared with and without inhibitors c2, Withaferin A and LY311727 in DMSO with concentrations 0.1-100 µM. hGIIA working solution with 0.4% DMSO served as a positive control and PBS with 0.1% BSA served as a negative control. A 100 μL volume of each prepared hGIIA-inhibitor mixture was added to wells in triplicate and incubated at 37 °C for two hours. The plate was washed twice with PBST, then incubated with the 4A1-AP conjugate at 1 μg/mL 0.1% BSA in PBS and incubated for one hour at 37 °C. Plates were then emptied and washed three times with PBST, followed by washing twice with carbonate buffer (8 mM Na2CO3, 36 mM NaHCO3, 2 mM MgCl2, pH 9.8), before incubation with AP substrate p-nitro-phenyl phosphate (PNPP) powder at 1 mg/mL concentration in carbonate buffer. The plate was incubated at 37 °C for 60 mins then absorbance was read at 405 nm by a Spectramax M2 plate reader. All washes were a 200 µL/well volume.

[2] = Pharmacokinetics of tritiated cF and c2 in BALB/c mice; type: in vivo
Experimental: All animal studies were performed according to the guidelines for the ethical use of animals published by the National Health and Medical Research Council of Australia. Mouse pharmacokinetic studies were conducted with approval from the Garvan Institute Animal Ethics Committee (approval #02/21). cF and c2 were radioactively labelled with tritium by catalytic saturation of peptide analogues containing dehydroleucine (Sibtech Inc.), yielding high specific activity (50–60 Ci/mmol) peptides. Their identity was confirmed by three separate analytical methods prior to delivery. Mice (BALB/c, n = 4 per timepoint) were administered a single dose of peptide by the routes and times indicated. Animals were then exsanguinated by cardiac puncture under halothane anaesthesia followed by cervical dislocation. Tissues and plasma were stored at −80 °C prior to analysis. For plasma, a known volume of plasma was added to liquid scintillant (Ultima Gold, Perkin Elmer). For tissues, a known amount of tissue (50–100 mg) was incubated in NaOH (1 mL, 1 M) overnight at room temperature. The solutions were then bleached with disodium EDTA (100 µl, 0.1%) and hydrogen peroxide (300 µl, 30%) and incubated at 50 °C for one hour. The peptide content of plasma and tissues was determined by liquid scintillation counting. The stability of the peptides following administration to animals was evaluated by thin-layer chromatography of tissue-extracted peptide relative to peptide prior to injection (Fig. S2c).

[3] = 28-day oral toxicity study: urinalysis; type: in vivo, male Sprague Dawley rats
Source text: Haematology and Biochemistry).
Urine was collected at the end of the study (on Days 29 and 43 for main and recovery groups, respectively) by placing a urine collection tube at the opening of the urethra and any urine expressed by the animal wa s collected. If no urine came out, pressure was gently applied on the bladder area of the abdomen.
Urine was also collected by bladder puncture at the time of death to maximise the volume collected. The animal was placed in lateral recumbency and the abdominal cavity opened. A needle attached to the syringe w as in serted int o the bladder and urine withdrawn with the plunger. The urine sample was expelled from the syringe into the collection tube.
The urine samples were an alysed, individual re su lts are pres ented a s an appendix to the report (Appendix C Study Data Spreadsheets). […]

[4] = Day 43, Gr 5 recovery, 20 mg/kg

For `CC(C)C[C@@H]1NC(=O)[C@H](Cc2ccc3ccccc3c2)NC(=O)[C@H](CCCNC(=N)N)NC(=O)[C@H](Cc2ccc3ccccc3c2)NC(=O)[C@H](CO)NC1=O` [c2, cyclo-((2-Nal)-Leu-Ser-(2-Nal)-Arg)] (cyclo([2Nal]LS[2Nal]R)), the IC50 [1] was 56.5 µM, the “oral bioavailability (in words)” value ([2]; sc and po administration) was “orally bioavailable” and the “oral bioavailability relative to sc delivery (AUC analysis)” value ([2]; tritiated peptide 5 mg/kg, po vs sc, at 16 hours) was ~ 10%. For the same molecule, the “Urine bilirubin: animals Negative” value ([3]; Day 29, Gr 2, 1 mg/kg) was 8/8, the “Urine blood: animals Negative” value ([3]; Day 29, Gr 2, 1 mg/kg) was 8/8 and the “Urine glucose: animals Negative” value ([3]; Day 29, Gr 2, 1 mg/kg) was 8/8. The “Urine ketone: animals Small” value ([3]; Day 29, Gr 2, 1 mg/kg) was 1/8, the “Urine ketone: animals Trace” value ([3]; Day 29, Gr 2, 1 mg/kg) was 5/8 and the “Urine leucocytes: animals Negative” value ([3]; Day 29, Gr 2, 1 mg/kg) was 8/8. For the same molecule, the “Urine nitrite: animals Negative” value ([3]; Day 29, Gr 2, 1 mg/kg) was 8/8, the “Urine protein: animals 1+” value ([3]; Day 29, Gr 2, 1 mg/kg) was 4/8 and the “Urine protein: animals 2+” value ([3]; Day 29, Gr 2, 1 mg/kg) was 2/8. The “Urine protein: animals Trace” value ([3]; Day 29, Gr 2, 1 mg/kg) was 2/8, the “Urobilinogen: animals Normal” value ([3]; Day 29, Gr 2, 1 mg/kg) was 8/8 and the “Urine bilirubin: animals Negative” value ([3]; Day 29, Gr 3, 20 mg/kg) was 9/9. For the same molecule, the “Urine blood: animals Negative” value ([3]; Day 29, Gr 3, 20 mg/kg) was 9/9, the “Urine glucose: animals Negative” value ([3]; Day 29, Gr 3, 20 mg/kg) was 9/9 and the “Urine ketone: animals Negative” value ([3]; Day 29, Gr 3, 20 mg/kg) was 1/9. For the same molecule, the “Urine ketone: animals Small” value ([3]; Day 29, Gr 3, 20 mg/kg) was 4/9, the “Urine ketone: animals Trace” value ([3]; Day 29, Gr 3, 20 mg/kg) was 4/9 and the “Urine leucocytes: animals Negative” value ([3]; Day 29, Gr 3, 20 mg/kg) was 9/9. The “Urine nitrite: animals Negative” value ([3]; Day 29, Gr 3, 20 mg/kg) was 9/9, the “Urine protein: animals 1+” value ([3]; Day 29, Gr 3, 20 mg/kg) was 7/9 and the “Urine protein: animals 2+” value ([3]; Day 29, Gr 3, 20 mg/kg) was 2/9. For the same molecule, the “Urobilinogen: animals Normal” value ([3]; Day 29, Gr 3, 20 mg/kg) was 9/9, the urine parameters ([3]; Day 29 and Day 43) was “no obvious effects” and the “Urine bilirubin: animals Negative” value [3, 4] was 5/5. The “Urine blood: animals Negative” value [3, 4] was 3/5, the “Urine blood: animals Small” value [3, 4] was 1/5 and the “Urine blood: animals Trace” value [3, 4] was 1/5. For the same molecule, the “Urine glucose: animals Negative” value [3, 4] was 5/5, the “Urine ketone: animals Negative” value [3, 4] was 2/5 and the “Urine ketone: animals Trace” value [3, 4] was 3/5. For the same molecule, the “Urine leucocytes: animals Negative” value [3, 4] was 5/5, the “Urine nitrite: animals Negative” value [3, 4] was 5/5 and the “Urine protein: animals 1+” value [3, 4] was 2/5. For the same molecule, the “Urine protein: animals 2+” value [3, 4] was 1/5, the “Urine protein: animals Negative” value [3, 4] was 2/5 and the “Urobilinogen: animals Normal” value [3, 4] was 5/5.
